Data from ChEMBL document CHEMBL3880392, “Tropane-derivatives, their preparation and use” (2002).

How the values were obtained:
Type in all cases: subcellular
[1] = target: Sodium-dependent dopamine transporter (Rattus norvegicus) (UniProt P23977); experiment: Inhibition of re-uptake of [3H]dopamine at DAT in Wistar rat corpus striatum synaptosomes by liquid scintillation counting relative to untreated control; settings: concentration not given here
[2] = target: Transporter (Rattus norvegicus) (UniProt F1LNR9); experiment: Inhibition of re-uptake of [3H]noradrenaline at NET in Wistar rat hippocampal synaptosomes by liquid scintillation counting relative to untreated control; settings: Hippocampus, concentration not given here
Transporter (Rattus norvegicus), sequence (F1LNR9 as listed by the source): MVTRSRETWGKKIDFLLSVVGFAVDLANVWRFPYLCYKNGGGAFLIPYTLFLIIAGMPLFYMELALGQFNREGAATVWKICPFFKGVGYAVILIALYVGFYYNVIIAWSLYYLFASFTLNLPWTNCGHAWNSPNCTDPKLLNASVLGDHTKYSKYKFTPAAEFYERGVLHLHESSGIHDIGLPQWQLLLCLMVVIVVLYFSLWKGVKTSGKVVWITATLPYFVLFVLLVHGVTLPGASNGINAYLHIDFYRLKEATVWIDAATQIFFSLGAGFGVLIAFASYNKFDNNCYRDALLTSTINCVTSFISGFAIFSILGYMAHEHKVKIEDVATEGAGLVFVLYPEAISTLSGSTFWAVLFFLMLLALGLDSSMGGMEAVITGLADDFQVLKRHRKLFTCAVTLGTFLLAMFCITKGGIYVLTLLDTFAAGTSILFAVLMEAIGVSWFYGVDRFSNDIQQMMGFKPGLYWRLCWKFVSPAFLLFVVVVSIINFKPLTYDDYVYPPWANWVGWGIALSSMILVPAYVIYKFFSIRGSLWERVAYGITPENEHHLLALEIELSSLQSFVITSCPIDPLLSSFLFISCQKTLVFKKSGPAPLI

[3] = target: Sodium-dependent serotonin transporter (Rattus norvegicus) (UniProt P31652); experiment: Inhibition of re-uptake of [3H]5-hydroxytryptamine at SERT in Wistar rat cortical synaptosomes by liquid scintillation counting relative to untreated control; settings: concentration not given here
Sodium-dependent serotonin transporter (Rattus norvegicus), sequence (P31652 whole entry): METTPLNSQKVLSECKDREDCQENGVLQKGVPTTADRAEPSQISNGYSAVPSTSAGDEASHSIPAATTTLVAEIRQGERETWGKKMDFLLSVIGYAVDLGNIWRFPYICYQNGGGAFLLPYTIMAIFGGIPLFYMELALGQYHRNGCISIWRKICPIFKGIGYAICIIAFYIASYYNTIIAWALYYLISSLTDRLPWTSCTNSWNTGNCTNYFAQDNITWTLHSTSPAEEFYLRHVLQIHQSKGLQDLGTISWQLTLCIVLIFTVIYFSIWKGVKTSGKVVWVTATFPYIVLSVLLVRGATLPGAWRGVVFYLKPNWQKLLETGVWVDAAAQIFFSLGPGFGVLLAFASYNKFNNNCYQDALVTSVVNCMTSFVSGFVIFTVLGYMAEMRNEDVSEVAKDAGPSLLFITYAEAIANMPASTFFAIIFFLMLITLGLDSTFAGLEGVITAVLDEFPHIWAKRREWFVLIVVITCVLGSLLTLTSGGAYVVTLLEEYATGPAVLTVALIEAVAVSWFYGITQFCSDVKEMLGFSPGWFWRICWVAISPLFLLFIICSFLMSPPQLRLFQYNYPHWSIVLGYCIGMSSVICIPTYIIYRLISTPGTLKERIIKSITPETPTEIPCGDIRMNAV

Measured: inhibition

Sodium-dependent dopamine transporter (Rattus norvegicus), sequence (P23977 whole entry): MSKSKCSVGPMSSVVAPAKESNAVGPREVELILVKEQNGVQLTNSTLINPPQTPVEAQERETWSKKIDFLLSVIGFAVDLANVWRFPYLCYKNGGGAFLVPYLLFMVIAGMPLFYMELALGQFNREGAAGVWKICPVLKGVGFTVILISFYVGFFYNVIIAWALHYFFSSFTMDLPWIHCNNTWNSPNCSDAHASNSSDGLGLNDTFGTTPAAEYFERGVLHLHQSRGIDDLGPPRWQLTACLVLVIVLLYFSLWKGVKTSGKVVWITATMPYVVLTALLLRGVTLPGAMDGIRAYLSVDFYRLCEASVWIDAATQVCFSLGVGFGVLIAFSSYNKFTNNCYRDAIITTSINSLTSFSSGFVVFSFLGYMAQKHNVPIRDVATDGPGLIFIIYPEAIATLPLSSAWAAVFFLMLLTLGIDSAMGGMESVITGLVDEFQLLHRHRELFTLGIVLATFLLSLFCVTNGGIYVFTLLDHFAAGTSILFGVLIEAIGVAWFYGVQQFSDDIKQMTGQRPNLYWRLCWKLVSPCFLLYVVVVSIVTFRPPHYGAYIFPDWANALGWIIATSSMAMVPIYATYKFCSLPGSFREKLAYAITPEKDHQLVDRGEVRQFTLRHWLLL

CCOC[C@@H]1[C@@H](c2ccc(Cl)c(Cl)c2)C[C@@H]2CC[C@H]1N2C
25 to 75%: all assays above

COC[C@@H]1[C@@H](c2ccc(Cl)c(Cl)c2)C[C@@H]2CC[C@H]1N2C
25 to 75%: all assays above

CN1[C@H]2CC[C@@H]1[C@H](CSc1ccccc1)[C@@H](c1ccc(Cl)c(Cl)c1)C2
25 to 75%: all assays above
